Source: patent US7704756B2, “Fluorogenic dyes” (Novartis Vaccines and Diagnostics, Inc., priority 2003, dated 2010)

How the values were obtained:
[1] = Reporter selectively fluorescent under reducing conditions (DTT versus control buffer); type: physicochemical; conditions: compound 9 at 50 mM
Procedure: An experiment was conducted to determine the effect of reducing conditions versus non-reducing conditions on a reporter compound according to the invention (compound 9). Two incubations were conducted with compound 9 at a concentration of 50 mM. A control incubation was conducted which compared the same molar concentration of compound 9 in 10 mM Na phosphate at pH 7.5. A reducing reaction composition was made comprising the same buffer, and 10 mM dithiothreitol (DTT). […] For this example, synthesis of compound was conducted as previously described.

[2] = pH 7.5 buffer
Procedure: An experiment was conducted to test the ability of compound 12 to respond to reducing conditions. Two incubations were performed: in the first, a control incubation, a sample of compound 12 was added to pH 7.5 buffer. In a second incubation (+DTT), the same amount of compound 12 was added to pH 7.5 buffer and then DTT was added to a final concentration of 10 mM.

mass spectrometry analysis of content of DTT containing reaction ([1]; 10 mM Na phosphate pH 7.5, 10 mM DTT) | fluorescence under reducing conditions ([1]; 10 mM Na phosphate pH 7.5, 10 mM dithiothreitol (DTT), after one minute at room temperature) | mass spectrometry analysis of content of control reaction ([1]; 10 mM Na phosphate pH 7.5, no DTT) | Molecule | colour of solution after addition of DTT (formation of free dichlorodithiofluorescein dye) ([2]; DTT 10 mM final, within one minute after addition) | colour of control incubation ([2]; no DTT)
only fluorescein | strong green fluorescence | only compound 9 | CC(=O)O.CC(C)(CCSSCC[N+](C)(C)C)C(=O)Oc1ccc2c(c1)Oc1cc(OC(=O)C(C)(C)CCSSCC[N+](C)(C)C)ccc1C21OC(=O)c2ccccc21 [compound 9, Bis(4-(2′-(trimethylamino)ethanedithio)-2,2-dimethylbutyryl)carboxyfluorescein] |  | 
 |  |  | 5(6)-Carboxy-2′,7′-dichloro-3′,6′-bis(2′″-trimethylammonium(ethanedithio))fluorescein [compound 12] | turned light blue | remained colorless
